Where “and” joins values, the source holds several entries; their conditions need not be identical. Equal values may be shown once.
Legend:
[1] = tested on: ceramide levels; test: Ceramide levels by ELISA in lung and plasma of uninfected mice, fenretinide diet supplementation; format: in vivo; conditions: 5 mg/kg per day in diet, 28 days, 5 mg/kg/day
From the text: Animals. Inbred C57BL/6-Cftr mice breeding pairs, heterozygous (HZ) at the Cftr locus, were used. All babies were genotyped between days 12 and 14 of their life. The animals were kept in cages with sterile corn bedding (Anderson, Bestmonro, La.) and maintained in ventilated racks (Lab Products). Mice were fed with either the NIH-31-modified irradiated mouse diet (Harlan Teklad, Indianapolis, Ind.) or a liquid diet starting at 14 days of age (Peptamen liquid diet; Nestle Canada, Brampton, ON). The liquid diet were freshly prepared every morning and provided in 50-mL centrifuge tubes (Fisher Scientific Ltd, Nepean, ON). Age- and gender-matched C57BL/6-Cftr+/+ (wild-type) mice, (female; n=10, male; n=31) and C57BL/6-Cftr−/− (Cftr-KO) mice (female; n=8, male; n=18) were murine pathogen-, Helicobacter- and parasite-free. They were housed (1-4 animals/cage), bred and maintained in a barrier facility unit under specific pathogen-free conditions. Experimental procedures with the mice were conducted in accordance with the Canadian Council on Animal Care guidelines and with the approval of the Animal Care Committee of the McGill University Health Center, Montreal, Quebec, Canada.
(§1) Fenretinide Diet Supplementation. Examples 2 to 6: fenretinide (Sigma-Aldrich, Oakville, ON) powder was resuspended in 95% ethanol and subsequently incorporated in the Peptamen liquid diet. It was protected from light and kept at 4° C. before being given to the mice (5 mg/kg per day per mouse). Mock-treated diets were prepared similarly by adding ethanol to the Peptamen diet but omitting the fenretinide supplementation. The diet was given every morning for 28 consecutive days with specific monitoring of the quantity consumed by the mice in each cage. Examples 7 to 12: fenretinide powder was kindly provided by Dr. Robert Smith (NIH; Bethesda, Md., USA). Fenretinide was resuspended in 95% ethanol to make a 2 μg/μL concentration. Approximately 40 μL of this preparation was incorporated into the Peptamen liquid diet (5 mg/kg per day per mouse). The prepared food containing fenretinide was then stored in the dark at 4° C. for no more than 3 hours prior to being administered to the mice. To ensure that the entire drug dose was consumed, the mice were given 10 mL of fenretinide-treated Peptamen, which represents ⅔ of the daily mouse food consumption, in the late afternoon. The remaining 5 mL of Peptamen (without fenretinide) was given the following morning. Mice were treated twice a week for 4 weeks. During the treatment period each mouse was kept in a separate cage (including WT mice) and was monitored to ensure that the entire amount of Peptamen containing the fenretinide or with out was consumed. The diet for the mock-treated control group was prepared and administered similarly to that described above, by adding the same volume of ethanol to the Peptamen diet but omitting the fenretinide supplementation.
Ceramide/Sphingolipids analysis. The concentration of ceramide in the (lung, liver, ileum, pancreas homogenates) and plasma from mice and humans were determined by ELISA^39;40 on separated lipids samples by thin layer chromatography, as described above. The phospholipids from the dry silica were resuspended in ethanol and used to coat Nunc plates specific for lipid binding. Plates were then washed, incubated with blocking buffer for 1 hr at 37° C. […]

[2] = tested on: DHA and AA levels; test: Fatty acid analysis (DHA, AA, DHA/AA ratio) in lungs and plasma, 28 daily treatments; format: in vivo, mice
Protocol: as §1
Fatty Acid Analysis. Minced tissues isolated from mice were immersed in 1 mM BHA in chloroform and methanol (2:1 vol). For plasma samples (mouse and human), 100 μL of plasma was added to 1 mL of BHA. Lipids were then extracted from all samples according to standard methods (Folch, et al. (1957) J. Biol. Chem. 226:497-509). Identification of phospholipids was carried out by thin-layer chromatography extraction (Van Handel & Zilversmit (1957) J. Lab. Clin. Med. 50:152-157). Also, fractionated lipids were dried and resuspended in heptane:methanol:sulfuric acid (5:1:1) for free fatty acid extraction. Diazomethane was used to esterify the fatty acids released and the esters were identified by GC/MS (Hewlett Packard 5880A, WCOT capillary column (Supelco-10, 35 m×0.5 mm, 1 μm thick)) using commercial standards (Sigma-Aldrich).

[3] = fenretinide-treated Cftr-KO infected mice, lungs and plasma
[4] = wild-type mice, lungs and plasma

## CC1=C(/C=C/C(C)=C/C=C/C(C)=C/C(=O)Nc2ccc(O)cc2)C(C)(C)CCC1 [fenretinide, all-trans-N-(4-hydroxyphenyl) retinamide]
[1]; Cftr-KO mice
  Ceramide levels, fold-increase (FEN-treated over CTRL), Lung: 7.0 fold and 7.0 (n = 3) fold
  Ceramide levels, fold-increase (FEN-treated over CTRL), Plasma: 6.9 fold and 6.9 (n = 3) fold
[1]; HZ mice
  Ceramide levels, fold-increase (FEN-treated over CTRL), Lung: 2.1 fold and 2.1 (n = 3) fold
  Ceramide levels, fold-increase (FEN-treated over CTRL), Plasma: 2.7 fold and 2.7 (n = 3) fold
[1]; WT mice
  Ceramide levels, fold-increase (FEN-treated over CTRL), Lung: 1.4 fold and 1.4 (n = 10) fold
  Ceramide levels, fold-increase (FEN-treated over CTRL), Plasma: 1.6 fold and 1.6 (n = 12) fold
[2]; Cftr-KO mice
  AA levels in the ileum, liver and pancreas: decrease
[2]; FEN-treated mice (untreated = 67-fold)
  Difference in median DHA/AA index ratio, wild-type/Cftr-KO: 7 fold
[2]; FEN-treated vs untreated
  Lowering of the difference in median DHA/AA index ratio between wild-type and Cftr-KO: approximately 10 fold
[2]; [3]
  AA levels, median vs infected Cftr-KO untreated controls: lower median
  Concentration of DHA incorporated in phospholipids, median vs wild-type infected controls: lower median
[2]; fenretinide-treated Cftr-KO infected mice, plasma
  Free DHA concentration, median vs wild-type infected controls: higher median
[2]; fenretinide-treated infected wild-type mice, lungs and plasma
  Free DHA (percentile), median vs wild-type untreated uninfected controls: significant difference
[2]; infected Cftr-KO mice, lungs and plasma
  DHA incorporated in phospholipids (percentile of total fatty acids), median vs untreated Cftr-KO: no difference
[2]; infected Cftr-KO mice, lungs and plasma (significant only in lungs)
  DHA/AA median index ratio vs untreated Cftr-KO: increase
[2]; [4]
  DHA incorporated in phospholipids (percentile of total fatty acids), median vs untreated wild-type: no difference
  DHA/AA median index ratio vs untreated wild-type: no effect
